Entries after “also recorded” stand apart in the source; their conditions may differ.
Tests used:
eIF4A R311E mutant = target: T1, eIF4A R311E mutant (Homo sapiens, UniProt P60842, R311E); assay: malachite green ATPase assay, eIF4A mutant; type: biochemical
T1 construct: 6xHis with TEV protease site (N, cleaved yes); made in house; host or cells: E. coli BL21-CodonPlus
Text: (§1) Furthermore, eIF4A R311K and R311E mutants were produced and tested with compound 28. As expected, compound 28 had no potency toward R311E, as the positively charged arginine is replaced with a negatively charged glutamic acid that repels the carboxylic acid of compound 28. However, compound 28 also had no potency for eIF4A R311K, even though it still maintains its positive charge. This may be attributed to the inability of this lysine to simultaneously provide hydrogen bond donation and ionic interactions to compound 28 due to geometrical constraints. The molecular docking also predicted that the furan of 28 may form a hydrogen bond with T109, and the butyl group may lie within a small hydrophobic groove within the binding pocket (FIG. 6A). Nevertheless, mutations to R110, T158, and R311 causing drastic losses in potency of compound 28 provided strong evidence that this was the correct binding pocket and pose for compound 28. This site, wedged between each RecA-like domain of eIF4A, is a novel binding pocket that has never been accessed by an eIF4A inhibitor.
(§2) ATPase assay. Recombinant WT or mutant eIF4A was added to a clear bottom 384 well plate (Greiner) in ATPase buffer (20 mM Tris pH 7.4, 80 mM KCl, 2.5 mM MgCl2, 1 mM DTT, 1% glycerol). […] The solution was incubated for 5 minutes at room temperature and Absorbance at 660 nm was read on a SpectraMax iD5 plate reader (Molecular Devices).

eIF4A R311K mutant = target: T2, eIF4A R311K mutant (Homo sapiens, UniProt P60842, R311K); assay: malachite green ATPase assay, eIF4A mutant; type: biochemical
T2 construct: 6xHis with TEV protease site (N, cleaved yes); made in house; host or cells: E. coli BL21-CodonPlus
T2 sequence (P60842 whole entry R311K): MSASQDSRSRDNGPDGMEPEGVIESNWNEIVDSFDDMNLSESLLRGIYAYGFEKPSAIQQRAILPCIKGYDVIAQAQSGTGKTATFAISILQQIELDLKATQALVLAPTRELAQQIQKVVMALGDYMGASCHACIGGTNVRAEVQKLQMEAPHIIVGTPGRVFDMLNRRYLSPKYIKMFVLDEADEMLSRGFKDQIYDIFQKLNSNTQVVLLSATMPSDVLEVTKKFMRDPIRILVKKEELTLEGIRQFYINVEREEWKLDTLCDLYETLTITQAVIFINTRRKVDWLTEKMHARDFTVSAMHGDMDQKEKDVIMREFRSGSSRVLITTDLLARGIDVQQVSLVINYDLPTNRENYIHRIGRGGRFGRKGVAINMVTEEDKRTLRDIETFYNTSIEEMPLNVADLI
Text: as §1, §2

eIF4A = eIF4A (Homo sapiens, UniProt P60842); assay: Thermal Shift Assay (TSA)/Differential Scanning Fluorimetry (DSF); type: binding; design: 6xHis with TEV protease site (N, cleaved yes); made in house; host or cells: E. coli BL21-CodonPlus; details: 5 μM eIF4A, 2 mM AMPPNP
Sequence of eIF4A (P60842 whole entry): as the sequence (P60842 whole entry R311K) above, with K311R counted along it
Experimental: Further evidence of this was uncovered in a thermal shift assay (TSA) using DSF with eIF4A and compound 28. […] Larger doses of compound 28 caused larger melting temperature (Tm) shifts in this assay, which argues that compound 28 is directly binding eIF4A.
Thermal Shift Assay (TSA)/Differential Scanning Fluorimetry (DSF). TSA/DSF experiments were performed on a Lightcycler 480 II (Roche Molecular Systems). eIF4A (5 μM) in buffer (20 mM Tris (pH 7.5), 10% glycerol, 0.1 mM EDTA, 2 mM DTT, 2 mM AMPPNP, 4% DMSO) was added to 96-well PCR plates (USA Scientific, Inc.) with or without compound. After a 5 min incubation, SYPRO orange dye was added to a final concentration of 5×. Samples were melted over a gradient from 20 to 85° C. with 20 acquisitions per ° C. at a ramp rate of 0.03° C./s.

[1] = tested on: cap-dependent translation of firefly luciferase; assay: in vitro translation of bicistronic luciferase reporter in rabbit reticulocyte lysate, firefly luciferase; type: biochemical; details: Cycloheximide 600 μM, Silvestrol 100 nM
Text: A bicistronic luciferase reporter ([…]) (FIG. 7B, top) was programmed into rabbit reticulocyte lysates, cellular extracts capable of performing both cap-dependent and Hepatitis C virus (HCV) internal ribosomal entry site (IRES)-mediated translation. eIF4A is the enzymatic driver of cap-dependent translation and is not involved in translation through HCV IRES. Compounds that inhibit eIF4A should inhibit cap-dependent translation of firefly (FF) luciferase while leaving IRES-mediated translation of Renilla (Ren) luciferase relatively unaffected. The inhibitory activities of cycloheximide, silvestrol, and 28 were assessed in this in vitro translation assay (FIG. 7B, bottom). […] The ability of compound 28 to preferentially target cap-dependent translation in a similar manner as silvestrol provides promising evidence that 28 inhibits eIF4A and not other proteins in the general translational machinery.
The dual-luciferase reporter plasmid pSP/(CAG)33/FF/HCV/Ren-pA51 was linearized with BamHI and subsequently in vitro transcribed using the Promega mMessage mMachine SP6 transcription kit, according to manufacturer's specifications. RNA was precipitated with LiCI and resuspended in H2O for use in in vitro translation experiments. Rabbit reticulocyte lysate (RRL) (nuclease-treated, Promega) was used to assess inhibitory effects of 28 on translation of the dual-reporter. Briefly, a reaction consisting of 50% RRL, 30 ng/μL reporter RNA, 10 μM Amino Acid Mixture Minus Methionine, 10 μM Amino Acid Mixture Minus Leucine, […], 1 U/μL RNAseOut (Thermo), and drug (final DMSO concentration 1%) were incubated at 30° C. for 90 minutes. The reaction was quenched with 50 μL 1× Passive Lysis Buffer (Promega), 10 μL of the mix was transferred to a 96-well white plate (Cellstar), and the Dual-Reporter Luciferase Assay System (Promega) was used to generate luminescence according to the manufacturer's instructions. Luminescence was detected using a plate reader (BioTek HT Synergy).

T1 sequence (P60842 whole entry R311E): as the sequence (P60842 whole entry R311K) above, with K311E counted along it

CCCCc1ccc(-c2ccc(-c3cc(C(=O)O)c4cc([N+](=O)[O-])ccc4n3)o2)cc1 [Compound 28, 2-(5-(4-butylphenyl)furan-2-yl)-6-nitroquinoline-4-carboxylic acid] was tested, and the “potency against eIF4A mutant in ATPase assay” value (eIF4A R311E mutant) was “no potency”, the “potency against eIF4A mutant in ATPase assay” value (eIF4A R311K mutant) was “no potency” and the “eIF4A thermal stability / melting temperature (TSA)” value (eIF4A) was “increased eIF4A stability”. The “effect on cap-dependent translation (firefly luciferase)” value [1] was “inhibit cap-dependent translation of firefly luciferase; also recorded: inhibits cap-dependent translation”.

Reference: US20240360107A1, “AN EIF4A INHIBITOR WITH A NOVEL MECHANISM OF ACTION” (ARIZONA BOARD OF REGENTS ON BEHALF OF THE UNIVERSITY OF …, priority 2021, published 2024)
